Assay results as given in US9708336B2, “Metallo-beta-lactamase inhibitors” (priority 2014, dated 2017).
Where two headings read alike, the source gives them in different places.

Tests used:
NDM-1 = NDM-1 (Klebsiella pneumoniae, UniProt C7C422); assay: biochemical; assay type: biochemical; conditions: read-out: NDM-1 IC50
IMP-1 = IMP-1 (Serratia marcescens, UniProt P52699); assay: biochemical; assay type: biochemical; conditions: read-out: IMP-1 IC50
VIM-1 = VIM-1 (Pseudomonas aeruginosa (strain ATCC 15692 / DSM 22644 / CIP 104116 / JCM 14847 / LMG 12228 / 1C / PRS 101 / PAO1), UniProt A0A0F7KYQ8); assay: Enzyme activity: determination of IC50, fluorescence assay with CCF2-FA substrate (VIM-1); assay type: biochemical
[1] = tested on: Escherichia coli expressing NDM-1 (CLB30005); assay: Antibiotic potentiation activity: synergistic concentration (MITC95) with imipenem, OD600 growth; assay type: cell-based; conditions: for Escherichia coli expressing NDM-1 (CLB 30005) MITC95: concentration giving 95% inhibition of bacterial growth; for Escherichia coli MITC95: Escherichia coli expressing NDM-1 (CLB30005), 95% growth inhibition
Summary of the method: (§1)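 Spectrophotometric growth readings were taken following 22–24 h at 35 °C. Before that, organisms in 1.1× CAMHB were mixed with imipenem, used at 4 μg/ml in assay, and test compound.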

[2] = tested on: Klebsiella pneumoniae expressing VIM-1 (IHMA599644); assay: as above; assay type: cell-based; conditions: for Klebsiella pneumoniae expressing VIM-1 (IHMA 599644) MITC95: concentration giving 95% inhibition of bacterial growth; for Klebsiella pneumoniae MITC95: Klebsiella pneumoniae expressing VIM-1 (IHMA599644), 95% growth inhibition
Summary of the method: as §1

[3] = tested on: Serratia marcescens expressing IMP-1 (CL5741); assay: as above; assay type: cell-based; conditions: for Serratia marcescens expressing IMP-1 (CL5741) MITC95: concentration giving 95% inhibition of bacterial growth; for Serratia marcescens MITC95: Serratia marcescens expressing IMP-1 (CL5741), 95% growth inhibition
Summary of the method: as §1

[4] = fluorescence assay with CCF2-FA substrate
[5] = fluorescence assay with CCF2-FA substrate, read-out: VIM-1 IC50
[6] = NDM-1 enzyme, CCF2-FA fluorescence assay
[7] = IMP-1 enzyme, CCF2-FA fluorescence assay
[8] = VIM-1 enzyme, CCF2-FA fluorescence assay, read-out: VIM-1 IC50
[9] = VIM-1 IC50, fluorescence assay with CCF2-FA substrate

Sequence of NDM-1 (C7C422 whole entry, looked up, species assumed): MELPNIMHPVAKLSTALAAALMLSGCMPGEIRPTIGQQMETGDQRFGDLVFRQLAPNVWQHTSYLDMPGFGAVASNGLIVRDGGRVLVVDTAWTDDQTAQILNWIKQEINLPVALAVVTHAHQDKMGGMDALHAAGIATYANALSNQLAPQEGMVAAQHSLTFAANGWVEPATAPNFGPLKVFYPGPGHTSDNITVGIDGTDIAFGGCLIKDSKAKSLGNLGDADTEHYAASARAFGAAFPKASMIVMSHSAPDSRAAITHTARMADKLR
Sequence of IMP-1 (P52699 whole entry, looked up): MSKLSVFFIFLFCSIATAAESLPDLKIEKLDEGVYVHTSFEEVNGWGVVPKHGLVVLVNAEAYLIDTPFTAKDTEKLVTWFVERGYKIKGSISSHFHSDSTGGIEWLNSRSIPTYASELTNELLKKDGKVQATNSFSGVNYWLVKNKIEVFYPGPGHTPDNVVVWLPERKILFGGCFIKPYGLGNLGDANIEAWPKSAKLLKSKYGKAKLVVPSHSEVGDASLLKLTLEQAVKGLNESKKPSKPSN

| SMILES | IC50 (NDM-1; [4]) [µM] | IC50 (IMP-1; [4]) [µM] | IC50 (VIM-1; [5]) [µM] | Escherichia coli expressing NDM-1 (CLB 30005) MITC95 [1] [µM] | Klebsiella pneumoniae expressing VIM-1 (IHMA 599644) MITC95 [2] [µM] | Serratia marcescens expressing IMP-1 (CL5741) MITC95 [3] [µM] | IC50 (NDM-1; [6]) [µM] | IC50 (IMP-1; [7]) [µM] | IC50 (VIM-1; [8]) [µM] | Escherichia coli MITC95 [1] [µM] | Klebsiella pneumoniae MITC95 [2] [µM] | Serratia marcescens MITC95 [3] [µM] | IC50 (VIM-1; [9]) [µM] |
| --- | --- | --- | --- | --- | --- | --- | --- | --- | --- | --- | --- | --- | --- |
| COC1CCN(C(=O)c2ccc(-c3cccc(S(N)(=O)=O)c3-c3nn[nH]n3)cc2)CC1 [Example 51, 4′-[(4-methoxypiperidin-1-yl)carbonyl]-2-(2H-tetrazol-5-yl)biphenyl-3-sulfonamide] | 0.00274 | 0.0274 | 4.19 | 9.375 | >200 | 31.25 |  |  |  |  |  |  |  |
| NS(=O)(=O)c1cccc(-c2ccco2)c1-c1nn[nH]n1 [Example 41, 3-furan-2-yl-2-(2H-tetrazol-5-yl)benzenesulfonamide] | 0.0304 | 0.247 | 1.15 | 0.3906 | 200 | 9.375 |  |  |  |  |  |  |  |
| COc1cccc(S(N)(=O)=O)c1-c1nnn[nH]1 [Example 257, 3-Methoxy-2-(1H-tetrazol-5-yl)benzenesulfonamide] |  |  |  |  |  |  | 0.547 | 8.28 | 9.23 | 1.563 | >200 | 150 |  |
| NC(=O)c1cccc(-c2ccnc(S(N)(=O)=O)c2-c2nn[nH]n2)c1 [Example 204, 3-(2-sulfamoyl-3-(2H-tetrazol-5-yl)pyridin-4-yl)benzamide] | 0.059 | 2.85 | 0.238 | 0.3906 | 12.5 | 37.5 |  |  |  |  |  |  |  |
| NS(=O)(=O)c1cccc(-c2ccc(-c3noc(C4CCNC4)n3)cc2)c1-c1nn[nH]n1 (stereo not drawn) [Example 250, 4′-(5-(pyrrolidin-3-yl)-1,2,4-oxadiazol-3-yl)-2-(2H-tetrazol-5-yl)-[1,1′-biphenyl]-3-sulfonamide] |  |  |  |  |  |  | 0.018 | 0.109 | 0.195 | 0.7813 | 100 | 4.688 |  |
| NS(=O)(=O)c1nccc(-c2ccc(C(=O)O)cc2)c1-c1nnn[nH]1 [Example 183, 4-(2-Sulfamoyl-3-(1H-tetrazol-5-yl)pyridin-4-yl)benzoic acid] | 0.0115 | 0.339 |  | 4.688 | 75 | 50 |  |  |  |  |  |  | 0.173 |
| NS(=O)(=O)c1cccc(-c2ccc(-c3nnn[nH]3)cc2)c1-c1nn[nH]n1 [Example 72, 4′-(1H-tetrazol-5-yl)-2-(2H-tetrazol-5-yl)biphenyl-3-sulfonamide] | 0.000637 | 0.0487 | 0.0222 | 2.344 | 25 | 12.5 |  |  |  |  |  |  |  |
| NS(=O)(=O)c1cccc(-c2cnc(C3(O)CCC3)s2)c1-c1nn[nH]n1 [Example 21, 3-[2-(1-hydroxycyclobutyl)-1,3-thiazol-5-yl]-2-(2H-tetrazol-5-yl)benzenesulfonamide] | 0.0638 | 2.27 | 0.564 | 12.89 | >200 | 100 |  |  |  |  |  |  |  |
| NS(=O)(=O)c1cccc(-c2ccn3cncc3c2)c1-c1nn[nH]n1 [Example 247, 3-(Imidazo[1,5-a]pyridin-7-yl)-2-(2H-tetrazol-5-yl)benzenesulfonamide] |  |  |  |  |  |  | 0.0146 | 0.479 | 0.116 | 0.3906 | 37.5 | 25 |  |
| C[C@@H]1NC(=O)O[C@H]1c1ccc(-c2cccc(S(N)(=O)=O)c2-c2nnn[nH]2)cc1 [Example 29, 4′-[(4S,5S)-4-methyl-2-oxo-1,3-oxazolidin-5-yl]-2-(1H-tetrazol-5-yl)biphenyl-3-sulfonamide] | 0.00149 | 0.0121 | 0.0528 | 3.125 | 200 | 6.25 |  |  |  |  |  |  |  |
| NS(=O)(=O)c1cccc(-c2ccc(F)nc2)c1-c1nn[nH]n1 [Example 48, 3-(6-fluoropyridin-3-yl)-2-(2H-tetrazol-5-yl)benzenesulfonamide] | 0.0191 | 0.644 | 0.182 | 0.3906 | 66.67 | 33.33 |  |  |  |  |  |  |  |
| NS(=O)(=O)c1cccc(-c2ccc(O)nc2)c1-c1nn[nH]n1 [Example 80, 3-(6-hydroxypyridin-3-yl)-2-(2H-tetrazol-5-yl)benzenesulfonamide] | 0.0818 | 2.38 |  | 0.3906 | 25 | 50 |  |  |  |  |  |  | 0.542 |
| CNC(=O)c1ccc(-c2cccc(S(N)(=O)=O)c2-c2nn[nH]n2)cc1 [Example 13, N-methyl-3′-sulfamoyl-2′-(2H-tetrazol-5-yl)biphenyl-4-carboxamide] | 0.00547 | 0.173 | 0.226 | 1.563 | 200 | 200 |  |  |  |  |  |  |  |
| NS(=O)(=O)c1cccc(-c2cn(S(=O)(=O)c3ccccc3)c3ncccc23)c1-c1nn[nH]n1 [Example 109, 3-[1-(phensulfonyl)-1H-pyrrolo[2,3-b]pyridin-3-yl]-2-(2H-tetrazol-5-yl)benzenesulfonamide] | 0.00221 | 0.0389 |  | 12.5 | 18.75 | 12.89 |  |  |  |  |  |  | 0.000637 |
| NS(=O)(=O)c1cc(Cl)cc(-c2ccc3c(c2)C(=O)NC3)c1-c1nn[nH]n1 [Example 289, 5-Chloro-3-(3-oxo-2,3-dihydro-1H-isoindol-5-yl)-2-(2H-tetrazol-5-yl)benzenesulfonamide] |  |  |  |  |  |  | 0.0135 | 0.121 | 0.452 | 3.125 | >200 | 31.25 |  |
| C[C@H]1NC(=O)O[C@H]1c1ccc(-c2cccc(S(N)(=O)=O)c2-c2nnn[nH]2)cc1 [Example 23, 4′-[(4R,5S)-4-methyl-2-oxo-1,3-oxazolidin-5-yl]-2-(1H-tetrazol-5-yl)biphenyl-3-sulfonamide] | 0.000637 | 0.00436 | 0.00976 | 2.344 | 50 | 2.344 |  |  |  |  |  |  |  |
| NS(=O)(=O)c1cccc(C2=CCSCC2)c1-c1nn[nH]n1 [Example 62, 3-(3,6-dihydro-2H-thiopyran-4-yl)-2-(2H-tetrazol-5-yl)benzenesulfonamide] | 0.00847 | 0.211 | 0.186 | 1.563 | 100 | 100 |  |  |  |  |  |  |  |
